# Where two headings read alike, the source gives them in different places.
# Experiments:
# Format in all cases: cell-based
# C. albicans CCUG 39343 = assay: Robotic MIC assay, Candida strains (Example 2); settings: Candida albicans, CCUG39343, 48 h, Mueller-Hinton broth, read-out: Minimum Inhibitory Concentration (MIC)
# Experimental: (§1) A robotic MIC Assay was performed as follows. OligoG CF-5/20 were dissolved in medium (Mueller-Hinton broth or M19 broth depending on experiment) to 1.25 times of the desired assay concentrations (2, 6 and 10%). The antifungal agents under test were dissolved in medium without OligoG CF-5/20 and in medium with OligoG CF-5/20 at a concentration of 1.25 times the highest desired assay concentrations. For experiments where the effect of adding different concentrations of Na^+ was investigated, NaCl was dissolved in medium to the desired concentrations (10, 30 and 50 mM).
# (§2) Two-fold serial dilutions of antifungal agents were made in medium with different concentrations of OligoG CF-5/20, and the solutions were placed in four parallel wells in Nunc 384-well micro plates (30 μl per well in Nunc 242757 microplates). A group of 8 wells with no addition of antifungal agents for each OligoG CF-5/20 concentration was included on each microplate as growth reference. To each well in the 384-well assay plates was added 7.5 μl of medium inoculated with a frozen stock culture of Candida albicans (strain CCUG 39343).
# (§3) The micro plates were placed in plastic bags and incubated without shaking at 34° C. The optical density at 600 nm in the microwells was measured after approximately 13, 18, 24 and 34 hours of incubation, and the relative growth yield in each well was calculated based on the growth in the reference groups.
# (§4) The robotic assay described in Example 1 was employed in this Example. Strains were grown in Mueller-Hinton broth (LAB114 from Lab M Limited) and MIC values (μg ml-1) were determined for each antifungal after incubation for 48 h in the presence of 0, 2, 6 and 10% OligoG CF-5/20 G-fragments. […] OligoG CF-5/20 G-fragments were provided by AlgiPharma AS, Norway.
# (§5) Candida strains used were as follows: • C. albicans CCUG 39343 (strain from culture collection) • C. parapsillosis ATCC 22019T (strain from culture collection) • C. krusei 141/03 (candidosis) • C. krusei 249/03(2) (ulceration) • C. lusitaniae 994/01(2) (candidosis) • C. tropicalis 12 (vaginal) • C. tropicalis 75 (vaginal) • C. tropicalis 519468 (urinary) • C. tropicalis 544123 (urinary) • C. tropicalis 250/03 (candidosis) • C. tropicalis AG1 (oral) • C. tropicalis T2.2 (oral)
# [1] = tested on: C. tropicalis 519468 (urinary); assay: Robotic MIC assay, Candida strains (Example 2); settings: Candida tropicalis, 48 h, Mueller-Hinton broth, read-out: Minimum Inhibitory Concentration (MIC)
# Experimental: as §1, §2, §3, §4, §5
# [2] = tested on: C. krusei 249/03(2) (ulceration); assay: Robotic MIC assay, Candida strains (Example 2); settings: Pichia kudriavzevii, 48 h, Mueller-Hinton broth, read-out: Minimum Inhibitory Concentration (MIC)
# Experimental: as §1, §2, §3, §4, §5
# [3] = tested on: C. tropicalis 75 (vaginal); assay: Robotic MIC assay, Candida strains (Example 2); settings: Candida tropicalis, 48 h, Mueller-Hinton broth, read-out: Minimum Inhibitory Concentration (MIC)
# Experimental: as §1, §2, §3, §4, §5
# [4] = tested on: C. tropicalis 250/03 (candidosis); assay: Robotic MIC assay, Candida strains (Example 2); settings: Candida tropicalis, 48 h, C. tropicalis 250/03 Candiosis, Mueller-Hinton broth, read-out: Minimum Inhibitory Concentration (MIC)
# Experimental: as §1, §2, §3, §4, §5
# C. tropicalis AG1 (oral) = assay: Robotic MIC assay, Candida strains (Example 2); settings: Candida tropicalis, 48 h, Mueller-Hinton broth, read-out: Minimum Inhibitory Concentration (MIC)
# Experimental: as §1, §2, §3, §4, §5
# [5] = tested on: C. lusitaniae 994/01(2) (candidosis); assay: Robotic MIC assay, Candida strains (Example 2); settings: Clavispora lusitaniae, 48 h, Mueller-Hinton broth, read-out: Minimum Inhibitory Concentration (MIC)
# Experimental: as §1, §2, §3, §4, §5
# [6] = tested on: C. krusei 141/03 (candidosis); assay: Robotic MIC assay, Candida strains (Example 2); settings: Pichia kudriavzevii, 48 h, Mueller-Hinton broth, read-out: Minimum Inhibitory Concentration (MIC)
# Experimental: as §1, §2, §3, §4, §5
# [7] = tested on: C. tropicalis T2.2 (oral); assay: Robotic MIC assay, Candida strains (Example 2); settings: Candida tropicalis, 48 h, Mueller-Hinton broth, read-out: Minimum Inhibitory Concentration (MIC)
# Experimental: as §1, §2, §3, §4, §5
# [8] = tested on: C. tropicalis 544123 (urinary); assay: Robotic MIC assay, Candida strains (Example 2); settings: Candida tropicalis, 48 h, Mueller-Hinton broth, read-out: Minimum Inhibitory Concentration (MIC)
# Experimental: as §1, §2, §3, §4, §5
# [9] = tested on: C. tropicalis 12 (vaginal); assay: Robotic MIC assay, Candida strains (Example 2); settings: Candida tropicalis, 48 h, Mueller-Hinton broth, read-out: Minimum Inhibitory Concentration (MIC)
# Experimental: as §1, §2, §3, §4, §5
# [10] = tested on: Aspergillus fumigatus CCUG 17460; assay: Robotic MIC assay, Aspergillus (Example 4); settings: Aspergillus fumigatus, CCUG17460, 48 h, Mueller-Hinton broth, read-out: Minimum Inhibitory Concentration (MIC)
# Experimental: Aspergillus sp. was grown at 30° C. for 96 h on YM-agar. Spores and aerial mycelium was cut out from the agar, suspended in 1 ml YM-broth and dispersed with glass beads (1 mm) in a mini bead beater for 2 min. Glycerol was added to the suspension to 10% and frozen at −80° C.
# Each batch of frozen stock culture was then characterized in separate growth experiments using Mueller-Hinton broth to determine the minimum amount of inoculum giving satisfactory growth after 48 h under the conditions relevant for the MIC assay. This inoculation procedure is used in order to reduce day to day variation in bioassays.
# Robotic minimum inhibitory concentration (MIC) assay was performed as follows. OligoG CF-5/20 was dissolved in medium (Mueller-Hinton broth) to 1.25 times of the desired assay concentrations (2, 6 and 10%). […].
# Two-fold serial dilutions of antifungal agents were made in medium with different concentrations of OligoG CF-5/20, and the solutions were placed in four parallel wells in Nunc 384-well micro plates (30 μl per well in Nunc 242757 microplates). A group of 8 wells with no addition of antifungal agents for each OligoG CF-5/20 concentration was included on each micro plate as growth reference. Each well in the 384-well assay plates was added 7.5 μl of the MH medium inoculated with frozen stock culture of the relevant strains.
# The microplates were placed in plastic bags and incubated without shaking at 34° C. The optical density at 600 nm in the microwells was measured after approximately 24 and 48 hours of incubation. […]
structure (smiles),measurement,setting,value
"CN(C/C=C/C#CC(C)(C)C)Cc1cccc2ccccc12 [Terbinafine, terbinafine]",MIC,C. albicans CCUG 39343; 0% OligoG,> 32 µg/mL
same,MIC,C. albicans CCUG 39343; 2% OligoG,> 32 µg/mL
same,MIC,C. albicans CCUG 39343; 6% OligoG,> 32 µg/mL
same,MIC,C. albicans CCUG 39343; 10% OligoG,> 32 µg/mL
same,MIC,[1]; 0% OligoG,> 32 µg/mL
same,MIC,[1]; 2% OligoG,> 32 µg/mL
same,MIC,[1]; 6% OligoG,> 32 µg/mL
same,MIC,[1]; 10% OligoG,> 32 µg/mL
same,MIC,[2]; 0% OligoG,4 µg/mL
same,MIC,[2]; 2% OligoG,4 µg/mL
same,MIC,[2]; 6% OligoG,8 µg/mL
same,MIC,[2]; 10% OligoG,4 µg/mL
same,MIC,[3]; 0% OligoG,> 32 µg/mL
same,MIC,[3]; 2% OligoG,> 32 µg/mL
same,MIC,[3]; 6% OligoG,> 32 µg/mL
same,MIC,[3]; 10% OligoG,> 32 µg/mL
same,MIC,[4]; 0% OligoG,> 32 µg/mL
same,MIC,[4]; 2% OligoG,> 32 µg/mL
same,MIC,[4]; 6% OligoG,> 32 µg/mL
same,MIC,[4]; 10% OligoG,> 32 µg/mL
same,MIC,C. tropicalis AG1 (oral); 0% OligoG,> 32 µg/mL
same,MIC,C. tropicalis AG1 (oral); 2% OligoG,32 µg/mL
same,MIC,C. tropicalis AG1 (oral); 6% OligoG,> 32 µg/mL
same,MIC,C. tropicalis AG1 (oral); 10% OligoG,> 32 µg/mL
same,MIC,[5]; 0% OligoG,8 µg/mL
same,MIC,[5]; 2% OligoG,4 µg/mL
same,MIC,[5]; 6% OligoG,4 µg/mL
same,MIC,[5]; 10% OligoG,2 µg/mL
same,MIC,[6]; 0% OligoG,> 32 µg/mL
same,MIC,[6]; 2% OligoG,> 32 µg/mL
same,MIC,[6]; 6% OligoG,> 32 µg/mL
same,MIC,[6]; 10% OligoG,> 32 µg/mL
same,MIC,[7]; 0% OligoG,> 32 µg/mL
same,MIC,[7]; 2% OligoG,> 32 µg/mL
same,MIC,[7]; 6% OligoG,> 32 µg/mL
same,MIC,[7]; 10% OligoG,32 µg/mL
same,MIC,[8]; 0% OligoG,> 32 µg/mL
same,MIC,[8]; 2% OligoG,> 32 µg/mL
same,MIC,[8]; 6% OligoG,> 32 µg/mL
same,MIC,[8]; 10% OligoG,> 32 µg/mL
same,MIC,[9]; 0% OligoG,> 32 µg/mL
same,MIC,[9]; 2% OligoG,16 µg/mL
same,MIC,[9]; 6% OligoG,> 32 µg/mL
same,MIC,[9]; 10% OligoG,32 µg/mL
same,MIC,"[10]; A. fumigatus CCUG 17460, 0% OligoG",4 µg/mL
same,MIC,"[10]; A. fumigatus CCUG 17460, 2% OligoG",4 µg/mL
same,MIC,"[10]; A. fumigatus CCUG 17460, 6% OligoG",4 µg/mL
same,MIC,"[10]; A. fumigatus CCUG 17460, 10% OligoG",2 µg/mL
